From patent US20190054051A1, “DOPA Formulations for Treatments of Parkinson's Disease” (The Board of Trustees of the Leland Stanford Junior …, priority 2017, published 2019) come the findings set out here.

Molecules are shown by their SMILES.

For one assay, the system named is p38. As to the kind of experiment: Western blot of phospho p38 and total p38 in striatum. It is filed as in vivo, mice. As for the experimental part:
After behavioral testing, mice again received their assigned injection and then, 45 minutes later, were decapitated under anesthesia. Tissue samples were processed as follows. Briefly, the brain was dissected, rapidly frozen on dry ice, and stored at −80° C. Striatal tissue was collected from 100 μm coronal slices cut at the level of striatum using a cryostat (Leica CM1950, Leica Biosystems Inc, Buffalo Groove, Ill.). Striatal samples from the intact and the lesioned hemisphere were separately collected in 150p1 of lysis solution (Totally RNA, Ambion, Austin, Tex.). Care was taken to make sure that the tissue samples were collected from similar regions in all the brain samples analyzed, since there are differences in the expression of GRKs from rostral to caudal CPu. […]
Western blots were quantified using band densitometry in Image J software (NIH version). […] Results are represented as group mean±SEM and analyzed using one-way or repeated-measures ANOVA (RM-ANOVA), with post hoc Bonferroni tests. The mouse cylinder test was analyzed with RM-ANOVA, with group (DOPA and DOPA-ranitidine formulations) as a between-group factor and saline vs. DOPA treatment as a within-group factor. AIMs scores were analyzed using the Kruskal Wallis test for pre-testing (DOPA injected animals) and the Mann-Whitney U test for the post-testing sessions (DOPA vs DOPA-ranitidine formulations). […]
On the technique in general: A western blot detects proteins with antibodies after separation by electrophoresis.

In another assay the test system is pERK, ChAT and H2R. Put plainly: Immunohistochemical co-localization of pERK, ChAT and H2R in striatum. The conditions noted are these: lesioned striatum. It is filed as in vivo, mice. As for the experimental part: Immunohistochemical analysis was performed with commonly known procedures. Mice were transcardially perfused with ice-cold 4% paraformaldehyde in PBS 45 minutes after challenge with L-DOPA or DOPA-ranitidine formulations. The brain was dissected out, post-fixed in 4% PFA overnight at 4° C., and cryoprotected using 30% sucrose in PBS. Cryoprotected brains were stored at -80° C. For TH immunostaining 30 μm coronal sections were taken around both CPu and substantia nigra, to examine dopaminergic denervation at the level of striatum and neuronal cell body loss at the level of substantia nigra. For pERK, ChAT, FoxP and AFos B expression, only coronal sections at the level of striatum was used. Free-floating coronal sections were blocked in blocking buffer (PBS with 2% BSA, 0.3% TritonX-100) for 1 hr at room temperature with gentle rocking. Sections were then transferred to incubation solution (PBS with 1% BSA, 0.03% TritonX-100) and the respective primary antibody as shown in table 1 and incubated at 4° C. for 24-48 hrs with gentle shaking. The sections were mounted with fluorescein or DAPI containing mounting media and serial z stack images were taken using Zeiss laser scanning confocal microscope LSM 800 at Stanford Cell Sciences Imaging facility. […]

For the compound `N[C@@H](Cc1ccc(O)c(O)c1)C(=O)O` [L-DOPA, L-3,4-dihydroxyphenylalanine], in the assay on p38, the “p38 phosphorylation in the lesioned hemisphere” value was “increased in the lesioned hemisphere only after DOPA treatment”. For the same compound, the “triple labeling of pERK, ChAT and H2R” value with pERK, ChAT and H2R is reported as “Occasional triple labeling”.
